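Briefly, cells in 96-well plates were exposed to five compound concentrations for 48 h, and endpoints were estimated by linear interpolation. GI50 marks 50% less growth. Definition used: TGI = concentration required for complete inhibition of growth.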
What was measured:
Assay in all cases: inhibition of tumour cell growth, NCI panel, 48 h
786-0 renal = system: 786-0 renal
A549 NSCLC = system: A549 NSCLC
ACHN renal = system: ACHN renal
BT-549 breast = system: BT-549 breast
CAKI-1 renal = system: CAKI-1 renal
CCRF-CEM leukemia = system: CCRF-CEM leukemia
COLO 205 colon = system: COLO 205 colon
DU-145 prostate = system: DU-145 prostate
EKVX NSCLC = system: EKVX NSCLC
HCC-2998 colon = system: HCC-2998 colon
HCT-116 colon = system: HCT-116 colon
HCT-15 colon = system: HCT-15 colon
HL-60(TB) leukemia = system: HL-60(TB) leukemia
HOP-62 NSCLC = system: HOP-62 NSCLC
HOP-92 NSCLC = system: HOP-92 NSCLC
HS 578T breast = system: HS 578T breast
HT29 colon = system: HT29 colon
IGROV1 ovarian = system: IGROV1 ovarian
K-562 leukemia = system: K-562 leukemia
KM12 colon = system: KM12 colon
LOX IMVI melanoma = system: LOX IMVI melanoma
M14 melanoma = system: M14 melanoma
MALME-3M melanoma = system: MALME-3M melanoma
MCF7 breast = system: MCF7 breast
MDA-MB-231 breast = system: MDA-MB-231 breast
MDA-MB-435 = system: MDA-MB-435
MOLT-4 leukemia = system: MOLT-4 leukemia
NCI-H226 lung = system: NCI-H226 lung
NCI-H23 lung = system: NCI-H23 lung
NCI-H460 lung = system: NCI-H460 lung
NCI-H522 lung = system: NCI-H522 lung
NCI/ADR-RES ovarian = system: NCI/ADR-RES ovarian
OVCAR-3 ovarian = system: OVCAR-3 ovarian
OVCAR-4 ovarian = system: OVCAR-4 ovarian
OVCAR-5 ovarian = system: OVCAR-5 ovarian
OVCAR-8 ovarian = system: OVCAR-8 ovarian
PC-3 prostate = system: PC-3 prostate
RPMI-8226 leukemia = system: RPMI-8226 leukemia
RXF 393 renal = system: RXF 393 renal
SF-268 CNS = system: SF-268 CNS
SF-295 CNS = system: SF-295 CNS
SF-539 CNS = system: SF-539 CNS
SK-MEL-2 melanoma = system: SK-MEL-2 melanoma
SK-MEL-28 melanoma = system: SK-MEL-28 melanoma
SK-MEL-5 melanoma = system: SK-MEL-5 melanoma
SK-OV-3 ovarian = system: SK-OV-3 ovarian
SN12C renal = system: SN12C renal
SNB-19 CNS = system: SNB-19 CNS
SNB-75 CNS = system: SNB-75 CNS
SR leukemia = system: SR leukemia
SW-620 colon = system: SW-620 colon
T-47D breast = system: T-47D breast
TK-10 renal = system: TK-10 renal
U251 CNS = system: U251 CNS
UACC-257 melanoma = system: UACC-257 melanoma
UACC-62 melanoma = system: UACC-62 melanoma
UO-31 renal = system: UO-31 renal

COc1ccc(-n2sc(=O)n(Cc3ccc(COC(=O)C(C)c4ccc(CC(C)C)cc4)cc3)c2=O)cc1 (centres undefined)
GI50 (786-0 renal): 6.13 µM | TGI (786-0 renal): 12.9 µM | GI50 (A549 NSCLC): 9.56 µM | TGI (A549 NSCLC): 25.9 µM | GI50 (ACHN renal): 0.996 µM | TGI (ACHN renal): 2.05 µM | GI50 (BT-549 breast): 2.91 µM | TGI (BT-549 breast): 9.37 µM | GI50 (CAKI-1 renal): 1.36 µM | TGI (CAKI-1 renal): 5.37 µM | GI50 (CCRF-CEM leukemia): 0.567 µM | TGI (CCRF-CEM leukemia): 3.74 µM | GI50 (COLO 205 colon): 1.1 µM | TGI (COLO 205 colon): 2.6 µM | GI50 (DU-145 prostate): 1.85 µM | TGI (DU-145 prostate): 6.34 µM | GI50 (EKVX NSCLC): 7.36 µM | TGI (EKVX NSCLC): 14.3 µM | GI50 (HCC-2998 colon): 7.99 µM | TGI (HCC-2998 colon): 17.2 µM | GI50 (HCT-116 colon): 0.979 µM | TGI (HCT-116 colon): 2.08 µM | GI50 (HCT-15 colon): 1.1 µM | TGI (HCT-15 colon): 2.86 µM | GI50 (HL-60(TB) leukemia): 1.23 µM | TGI (HL-60(TB) leukemia): 4.89 µM | GI50 (HOP-62 NSCLC): 8.84 µM | TGI (HOP-62 NSCLC): 21.1 µM | GI50 (HOP-92 NSCLC): 1.01 µM | TGI (HOP-92 NSCLC): 3.14 µM | GI50 (HS 578T breast): 4.77 µM | TGI (HS 578T breast): 13.8 µM | GI50 (HT29 colon): 2.12 µM | TGI (HT29 colon): 16.1 µM | GI50 (IGROV1 ovarian): 1.4 µM | TGI (IGROV1 ovarian): 4.74 µM | GI50 (K-562 leukemia): 1.43 µM | TGI (K-562 leukemia): 10.4 µM | GI50 (KM12 colon): 7.7 µM | TGI (KM12 colon): 14.6 µM | GI50 (LOX IMVI melanoma): 0.943 µM | TGI (LOX IMVI melanoma): 1.9 µM | GI50 (M14 melanoma): 2.6 µM | TGI (M14 melanoma): 9.45 µM | GI50 (MALME-3M melanoma): 1.04 µM | TGI (MALME-3M melanoma): 2.3 µM | GI50 (MCF7 breast): 1.82 µM | TGI (MCF7 breast): 9.54 µM | GI50 (MDA-MB-231 breast): 1.86 µM | TGI (MDA-MB-231 breast): 7.11 µM | GI50 (MDA-MB-435): 1.32 µM | TGI (MDA-MB-435): 3.93 µM | GI50 (MOLT-4 leukemia): 1.21 µM | TGI (MOLT-4 leukemia): 3.89 µM | GI50 (NCI-H226 lung): 11.9 µM | TGI (NCI-H226 lung): 33.2 µM | GI50 (NCI-H23 lung): 5.72 µM | TGI (NCI-H23 lung): 14.1 µM | GI50 (NCI-H460 lung): 5.41 µM | TGI (NCI-H460 lung): 12.5 µM | GI50 (NCI-H522 lung): 0.994 µM | TGI (NCI-H522 lung): 2.25 µM | GI50 (NCI/ADR-RES ovarian): 7.5 µM | TGI (NCI/ADR-RES ovarian): 20 µM | GI50 (OVCAR-3 ovarian): 0.821 µM | TGI (OVCAR-3 ovarian): 1.52 µM | GI50 (OVCAR-4 ovarian): 0.92 µM | TGI (OVCAR-4 ovarian): 1.99 µM | GI50 (OVCAR-5 ovarian): 5.58 µM | TGI (OVCAR-5 ovarian): 11.8 µM | GI50 (OVCAR-8 ovarian): 2.81 µM | TGI (OVCAR-8 ovarian): 21.5 µM | GI50 (PC-3 prostate): 5.63 µM | TGI (PC-3 prostate): 12.8 µM | GI50 (RPMI-8226 leukemia): 1.51 µM | TGI (RPMI-8226 leukemia): 4.11 µM | GI50 (RXF 393 renal): 1.27 µM | TGI (RXF 393 renal): 3.79 µM | GI50 (SF-268 CNS): 5.82 µM | TGI (SF-268 CNS): 12.2 µM | GI50 (SF-295 CNS): 10.6 µM | TGI (SF-295 CNS): 24.1 µM | GI50 (SF-539 CNS): 5.12 µM | TGI (SF-539 CNS): 10.9 µM | GI50 (SK-MEL-2 melanoma): 8.01 µM | TGI (SK-MEL-2 melanoma): 17 µM | GI50 (SK-MEL-28 melanoma): 3.02 µM | TGI (SK-MEL-28 melanoma): 9.53 µM | GI50 (SK-MEL-5 melanoma): 7.41 µM | TGI (SK-MEL-5 melanoma): 14.5 µM | GI50 (SK-OV-3 ovarian): 28 µM | TGI (SK-OV-3 ovarian): 50 µM | GI50 (SN12C renal): 2.83 µM | TGI (SN12C renal): 9.49 µM | GI50 (SNB-19 CNS): 7.38 µM | TGI (SNB-19 CNS): 14.5 µM | GI50 (SNB-75 CNS): 5.95 µM | TGI (SNB-75 CNS): 12.2 µM | GI50 (SR leukemia): 1.46 µM | TGI (SR leukemia): 50 µM | GI50 (SW-620 colon): 0.9 µM | TGI (SW-620 colon): 1.82 µM | GI50 (T-47D breast): 1.32 µM | TGI (T-47D breast): 5.54 µM | GI50 (TK-10 renal): 0.997 µM | TGI (TK-10 renal): 2.17 µM | GI50 (U251 CNS): 6.83 µM | TGI (U251 CNS): 14.5 µM | GI50 (UACC-257 melanoma): 2.02 µM | TGI (UACC-257 melanoma): 8.81 µM | GI50 (UACC-62 melanoma): 4.03 µM | TGI (UACC-62 melanoma): 10.5 µM | GI50 (UO-31 renal): 0.819 µM | TGI (UO-31 renal): 1.6 µM

Reference: PubChem BioAssay (NCI)
